The values that follow come from patent US20250188110A1, “SPECIFIC SMALL MOLECULE INHIBITORS THAT BLOCK KMT9 METHYLTRANSFERASE ACTIVITY AND FUNCTION” (ALBERT-LUDWIGS-UNIVERSITÄT FREIBURG, priority 2021, published 2025).

SMILES strings stand for the structures. Like-named read-outs stand apart in the source and are kept apart here.

Assay [1] deals with T1, KMT9 (Homo sapiens, UniProt Q9Y5N5).
T1 sequence (Q9Y5N5 1-214): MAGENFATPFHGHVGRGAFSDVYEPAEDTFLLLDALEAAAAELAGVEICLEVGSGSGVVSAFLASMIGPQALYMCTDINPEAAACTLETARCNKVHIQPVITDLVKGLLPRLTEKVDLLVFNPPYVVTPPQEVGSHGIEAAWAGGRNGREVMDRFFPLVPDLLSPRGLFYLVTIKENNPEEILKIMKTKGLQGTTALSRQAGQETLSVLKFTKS
T1 sequence (Q9UI30 1-120 isoform Q9UI30-2 partner): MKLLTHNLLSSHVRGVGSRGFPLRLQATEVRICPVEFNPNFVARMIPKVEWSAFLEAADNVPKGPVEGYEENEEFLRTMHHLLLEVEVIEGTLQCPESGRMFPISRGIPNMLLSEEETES
Put plainly: KMT9 methyltransferase inhibition assay, MTaseGlo luminescence (from entry 155). In kind it is biochemical. The conditions noted are these: 100 nM KMT9, 5 μM ETF1, 1 μM SAM. As for the experimental part:
For the compounds from entry 155 on in Table 1, the following procedure was used to determine IC50 values: The assay was carried out in white, opaque 384-well OptiPlates (PerkinElmer). For IC50 determination, a 2.5x substrate mix (final assay concentrations: 5 μM ETF1, 1 μM SAM and 1x MTaseGlo Reagent), a 2.5x KMT9 solution (final assay concentration 100 nM) and a 5x inhibitor stock 1:1 dilution series (concentration according to the desired range; dilution series was prepared in assay buffer containing 10% DMSO to obtain a final DMSO concentration of 2% in the assay) were prepared. 2 μL of 5x inhibitor stock and 4 μL of 2.5x KMT9 were pipetted, the plate was spun down at 700 rpm for 1 min using a Hettich UNIVERSAL 320 centrifuge and incubated at room temperature (around 25° C.) for 15 min. The reaction was initiated by adding 4 μL of 2.5x substrate mix, the plate was spun down as described before and incubated at 30° C. for 2 h. Afterwards, 10 μL of 2× MTaseGlo Detection solution was added, the plate was centrifuged as described above and incubated for 60 min at room temperature. Luminescence was measured using a PerkinElmer EnVision 2102 Multilabel Reader. Calculation of inhibition and data fitting was carried out as for entries 1-154. described above.
For the results of the methyltransferase inhibition assay shown as “Inhibition” in Table 1, “I” represents an IC50 less than 0.1 μM, “II” represents an IC50 equal or higher than 0.1 μM and less than 1 μM, “III” represents an IC50 equal or higher than 1 µM and less than 10 µM and “IV” represents an IC50 equal or higher than 10 µM

Assay [2] deals with T1, KMT9. Put plainly: Microscale thermophoresis (MST) KMT9 binding. In outline: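 Kd from microscale thermophoresis: compound series against 20 nM His-KMT9 labelled via RED-Tris-NTA, buffer 25 mM HEPES (pH 7.5)/100 mM NaCl/1 mM DTT/0.05% Tween, 40% MST power, 100% LED. Reported as classes: A ≤10 nM, B >10–100 nM, C >100–1000 nM, D >1000 nM.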
For orientation: MST reads how a fluorescent partner responds to local heating, with and without ligand.

The target in assay [3] is T1, KMT9. Put plainly: KMT9 thermal shift assay (SyproOrange). In kind it is binding. Summed up: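 ΔTm versus DMSO-only control is reported in bins (>20 K, 15–20 K, 10–15 K, ≤10 K), using Tm from Boltzmann sigmoidal fits of SyproOrange melt curves. KMT9 with compound in pH 8.5 BTP buffer containing MgCl2 and DTT was preincubated at 25° C, then ramped 1° C per 15 s up to 95° C.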

The target of assay [4] is T1, KMT9. Put plainly: KMT9 methyltransferase inhibition assay, 3H-SAM scintillation (entries 1-154). The note with it: entries 1-154: 3H-SAM assay, 25 nM KMT9, 5 μM ETF1. In kind it is biochemical. In outline:
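Tritium transfer from SAM (0.3 μM 3H-SAM, 0.7 μM unlabelled, final) to 5 μM ETF1 fragment by 25 nM KMT9 was measured after 2 h at 30° C, pH 8.5. Precipitated peptide was collected on filters and scintillation counted; IC50 came from a four-parameter fit of inhibition normalised to controls.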

[5] abbreviates: from entry 155: MTaseGlo assay, read-out: Inhibition.
[6] abbreviates: microscale thermophoresis, His-tag labelled KMT9 (20 nM), read-out: MST.
Setting [7] is: ΔTm, 500 µM compound, 2 μM KMT9, 5X SO, read-out: Thermal shift.
[8] abbreviates: MTaseGlo procedure (entries from 155), read-out: Inhibition (IC50).
[9] abbreviates: His-tag labelled KMT9 20 nM, read-out: MST (Kd).
[10] abbreviates: 500 µM compound, 2 μM KMT9, read-out: Thermal shift (ΔTm).
Setting [11] is: IC50 class, MTaseGlo procedure (entries from 155 on), read-out: Inhibition.
The mark [12] stands for this setting: His-tag labelled KMT9 20 nM, Kd class, read-out: MST.
Where [13] appears, read: ΔTm class, 500 uM compound, 2 μM KMT9, read-out: Thermal shift.

As to `O[C@@H]1[C@@H](CNCCCNCCc2ccccc2)C[C@@H](n2cc(-c3cc(Cc4ccccc4)ns3)c3cncnc32)[C@@H]1O` [Compound 617, (1R,2S,3R,5R)-3-[5-(3-Benzyl-1,2-thiazol-5-yl)pyrrolo[2,3-d]pyrimidin-7-yl]-5-[({3-[(2-phenylethyl)amino]propyl}amino)methyl]cyclopentane-1,2-diol], the IC50 at KMT9 [1] (setting [5]) lay in the range of 1000 to 10000 nM. Further, the Kd at KMT9 [2] (setting [6]) was above 1000 nM. Besides, at KMT9 [3] (setting [7]), the ΔTm at 500 µM was in the range of 10 to 15 °C.

Take `O[C@@H]1[C@@H](CNCCCNCCc2ccccc2)C[C@@H](n2cc3c4c(ncnc42)NCCC3)[C@@H]1O` [Compound 628, (1S,2R,3R,5R)-3-(((3-(Phenethylamino)propyl)amino)methyl)-5-(6,7,8,9-tetrahydro-2H-2,3,5,6-tetraazabenzo[cd]azulen-2-yl)cyclopentane-1,2-diol]: the IC50 on KMT9 [1] (setting [5]) was 1000 to 10000 nM. Also, the Kd on KMT9 [2] (setting [6]) is 100 to 1000 nM. In addition, the ΔTm at 500 µM on KMT9 [3] (setting [7]) was 10 to 15 °C.

Regarding `Cn1ccc(-c2cn([C@@H]3C[C@H](c4cccc(CN5CCC5)c4)[C@@H](O)[C@H]3O)c3nc(Cl)nc(N)c23)n1` [Compound 674, (1R,2S,3R,5R)-3-(4-amino-2-chloro-5-(1-methyl-1H-pyrazol-3-yl)-7H-pyrrolo[2,3-d]pyrimidin-7-yl)-5-(3-(azetidin-1-ylmethyl)phenyl)cyclopentane-1,2-diol], the IC50 on KMT9 [1] (setting [8]) is 100 to 1000 nM. On KMT9 [2] (setting [9]), the Kd was at most 10 nM. Besides, the ΔTm at 500 µM at KMT9 [3] (setting [10]) was 15 to 20 °C.

With `CN1CCC([C@H]2C[C@@H](n3cc(-c4ccn(S(=O)(=O)c5ccccc5)n4)c4c(N)nc(Cl)nc43)[C@H](O)[C@@H]2O)CC1` [Compound 492, (1R,2S,3R,5R)-3-(4-Amino-2-chloro-5-(1-(phenylsulfonyl)-1H-pyrazol-3-yl)-7H-pyrrolo[2,3-d]pyrimidin-7-yl)-5-(1-methylpiperidin-4-yl)cyclopentane-1,2-diol], the IC50 on KMT9 [1] (setting [11]) lay in the range of 100 to 1000 nM. Moreover, at KMT9 [2] (setting [12]), the Kd is at most 10 nM. Moreover, the ΔTm at 500 µM at KMT9 [3] (setting [13]) was above 20 °C.

`O[C@@H]1[C@H](O)[C@@H](C2CCCN(CCc3ccccc3)C2)C[C@H]1n1cc(-c2nc(Cc3ccccc3)cs2)c2cnc(Cl)nc21` (stereo partly drawn) [Compound 518, (1R,2S,3R,5R)-3-(5-(4-benzylthiazol-2-yl)-2-chloro-7H-pyrrolo[2,3-d]pyrimidin-7-yl)-5-(1-phenethylpiperidin-3-yl)cyclopentane-1,2-diol]: on KMT9 [1] (setting [11]), the IC50 was above 10000 nM. Further, the Kd at KMT9 [2] (setting [12]) is above 1000 nM. Besides, on KMT9 [3] (setting [13]), the ΔTm at 500 µM was at most 10 °C.

`CN1CCC([C@H]2C[C@@H](n3cc(-c4ccn(Cc5ccccc5)n4)c4c(N)nc(Cl)nc43)[C@H](O)[C@@H]2O)CC1` [Compound 502, (1R,2S,3R,5R)-3-(4-amino-5-(1-benzyl-1H-pyrazol-3-yl)-2-chloro-7H-pyrrolo[2,3-d]pyrimidin-7-yl)-5-(1-methylpiperidin-4-yl)cyclopentane-1,2-diol]: the IC50 on KMT9 [1] (setting [5]) fell in the range of 100 to 1000 nM. Moreover, the Kd at KMT9 [2] (setting [6]) is at most 10 nM. Further, the ΔTm at 500 µM at KMT9 [3] (setting [7]) was above 20 °C.

For the compound `Nc1nc(Cl)nc2c1c(Br)cn2[C@@H]1C[C@H](CN(CCCNCCc2ccc(F)cc2)c2cn[nH]c2)[C@@H](O)[C@H]1O` [Compound 538, (1R,2S,3R,5R)-3-(4-amino-5-bromo-2-chloro-7H-pyrrolo[2,3-d]pyrimidin-7-yl)-5-(((3-((4-fluorophenethyl)amino)propyl)(1H-pyrazol-4-yl)amino)methyl)cyclopentane-1,2-diol], the IC50 on KMT9 [1] (setting [8]) was 100 to 1000 nM. Further, the Kd on KMT9 [2] (setting [9]) was at most 10 nM. Besides, the ΔTm at 500 µM at KMT9 [3] (setting [10]) fell in the range of 15 to 20 °C.

For `O[C@@H]1[C@H](O)[C@@H](C2=CCCN(C3CC3)C2)C[C@H]1n1cc(-c2nc(Cc3ccccc3)cs2)c2cnc(Cl)nc21` [Compound 587, (1R,2S,3R,5R)-3-[5-(4-Benzyl-1,3-thiazol-2-yl)-2-chloropyrrolo[2,3-d]pyrimidin-7-yl]-5-(1-cyclopropyl-5,6-dihydro-2H-pyridin-3-yl)cyclopentane-1,2-diol], the IC50 at KMT9 [1] (setting [11]) is above 10000 nM. The Kd on KMT9 [2] (setting [12]) is above 1000 nM. In addition, the ΔTm at 500 µM at KMT9 [3] (setting [13]) is at most 10 °C.

As for `O[C@@H]1[C@H](O)[C@@H](C2CCCN(CC3CC3)C2)C[C@H]1n1cc(-c2nc(Cc3ccccc3)cs2)c2cnc(Cl)nc21` (stereo partly drawn) [Compound 516, (1R,2S,3R,5R)-3-(5-(4-benzylthiazol-2-yl)-2-chloro-7H-pyrrolo[2,3-d]pyrimidin-7-yl)-5-(1-(cyclopropylmethyl)piperidin-3-yl)cyclopentane-1,2-diol], the IC50 on KMT9 [1] (setting [11]) lay in the range of 1000 to 10000 nM. The Kd on KMT9 [2] (setting [12]) lay in the range of 100 to 1000 nM.

On to `Nc1ncnc2c1ccn2[C@@H]1C[C@H](CN(CCCNCCc2ccc(F)cc2)c2c[nH]nc2Br)[C@@H](O)[C@H]1O` [Compound 603, (1R,2S,3R,5R)-3-{4-Aminopyrrolo[2,3-d]pyrimidin-7-yl}-5-{[(3-bromo-2H-pyrazol-4-yl)(3-{[2-(4-fluorophenyl)ethyl]amino}propyl)amino]methyl}cyclopentane-1,2-diol], for which, at KMT9 [2] (setting [6]), the Kd was at most 10 nM. Also, the ΔTm at 500 µM on KMT9 [3] (setting [7]) was in the range of 15 to 20 °C. This compound also gave an IC50 against KMT9 [4] of 100 to 1000 nM.

With `Nc1ncnc2c1c(-c1ccn(Cc3ccccc3)n1)cn2[C@@H]1C[C@H](CNCCCNCCc2ccccc2)[C@@H](O)[C@H]1O` [477 (351), (1R,2S,3R,5R)-3-(4-Amino-5-(1-benzyl-1H-pyrazol-3-yl)-7H-pyrrolo[2,3-d]pyrimidin-7-yl)-5-(((3-(phenethylamino)propyl)amino)methyl) cyclopentane-1,2-diol], the Kd at KMT9 [2] (setting [6]) was in the range of 10 to 100 nM. Further, the ΔTm at 500 µM on KMT9 [3] (setting [7]) lay in the range of 15 to 20 °C. The compound further registered an IC50 at KMT9 [4] of 1000 to 10000 nM.

Regarding `CNc1ncnc2c1ccn2[C@@H]1C[C@H](CNCCCNCc2ccc(OCc3ccccc3)cc2)[C@@H](O)[C@H]1O` [328 (232), (1S,2R,3R,5R)-3-(((3-((4-(benzyloxy)benzyl)amino)propyl)amino)methyl)-5-(4-(methylamino)-7H-pyrrolo[2,3-d]pyrimidin-7-yl) cyclopentane-1,2-diol], on KMT9 [2] (setting [6]), the Kd is above 1000 nM. The ΔTm at 500 µM on KMT9 [3] (setting [7]) was at most 10 °C. The IC50 at KMT9 [4] is above 10000 nM.

Take `Nc1ncnc2c1c(-c1nccs1)cn2[C@@H]1C[C@H](CN(CCCNCCc2ccc(F)cc2)c2cn[nH]c2)[C@@H](O)[C@H]1O` [Compound 599, (1R,2S,3R,5R)-3-[4-Amino-5-(1,3-thiazol-2-yl)pyrrolo[2,3-d]pyrimidin-7-yl]-5-{[(3-{[2-(4-fluorophenyl)ethyl]amino}propyl)(1H-pyrazol-4-yl)amino]methyl}cyclopentane-1,2-diol]: on KMT9 [2] (setting [6]), the Kd is at most 10 nM. In addition, the ΔTm at 500 µM at KMT9 [3] (setting [7]) lay in the range of 15 to 20 °C. Also, the IC50 against KMT9 [4] is below 100 nM.

Consider `CN1CC=C(c2cn([C@@H]3C[C@H](CNCCCNCCc4ccccc4)[C@@H](O)[C@H]3O)c3ncnc(N)c23)CC1` [482 (356), (1R,2S,3R,5R)-3-(4-amino-5-(1-methyl-1,2,3,6-tetrahydropyridin-4-yl)-7H-pyrrolo[2,3-d]pyrimidin-7-yl)-5-(((3-(phenethylamino)propyl)amino)methyl) cyclopentane-1,2-diol], for which, on KMT9 [2] (setting [6]), the Kd was above 1000 nM. Besides, the ΔTm at 500 µM on KMT9 [3] (setting [7]) was 10 to 15 °C. On KMT9 [4], the IC50 fell in the range of 1000 to 10000 nM.
